# Measurements as given in patent US12570673B2, “c-Myc protein inhibitor, and preparation method therefor and use thereof” (SUZHOU KINTOR PHARMACEUTICALS, INC., priority 2019, dated 2026).
# Key:
# [1] = target: c-Myc370-412-biotin peptide (Homo sapiens (Human), UniProt P01106); assay: SPR binding affinity on c-Myc protein; settings: c-Myc370-412-biotin peptide immobilized, 1.00×PBS-P buffer (5% DMSO)
# Method: 1. Experiment Preparation
# 10×PBS-P was diluted into 1.05×PBS-P buffer solution for later use. The c-Myc370-412-biotin peptide was dissolved in chromatographic pure DMSO to prepare a 1 mM stock solution. The molecules were dissolved in chromatographic pure DMSO to prepare a 10 mM stock solution. Part of 1.05×PBS-P buffer was added to chromatographic pure DMSO to prepare 1.00×PBS-P buffer (5% DMSO, ready for use).
# The highest solubility of each small molecule in the 1.00×PBS-P buffer (5% DMSO) system was tested respectively. This solubility was used as the highest concentration tested for small molecule activity.
# 2. Protein Immobilization
# The c-Myc370-412-biotin peptide stock solution was added to 1.05×PBS-P buffer to prepare a 50 μM solution, and then diluted with 1.00×PBS-P buffer (5% DMSO) to […] for protein immobilization.
# After washing the sample channel and reference channel of the chip with 1.00×PBS-P buffer (5% DMSO), an automatic mode was used to immobilize the protein in the sample channel. The target amount of the immobilized protein was 500RU. The immobilization was successful. The buffer was used continuously to flush until equilibrium.
# 3. Small Molecule Activity Test.
# Buffer was used to prepare different concentrations of small molecule compounds for sample testing. The system was 1.00×PBS-P buffer (5% DMSO). The difference was detected between the response of small molecules flowing through the sample channel and the reference channel.
# The experimental conditions were a flow rate of 30 μL/min, binding time of 120 seconds, and dissociation time of 240 seconds. After each binding and dissociation test, 50% DMSO was used to flush the tubing, and 10 mM glycine-HCl buffer (pH 2.1) was used to flush the surface of the chip to wash away the remaining compound molecules.
# [2] = system: HL60 cells; assay: Anti-cancer activity test, MTT, HL60 cells; assay type: cell-based; settings: Homo sapiens, HL-60, culturing for 72 hours
# Method: (§1) Cell culture medium: Roswell medium RPMI-1640 (+L-glutamine) was added with 10% fetal bovine serum, with 100 units penicillin and 100 μg streptomycin per ml.
# (§2) Cell culture conditions: 5% CO2, 95% humidity, cultured at 37° C. constant temperature.
# (§3) 2. Cell Inoculation, Drugs Dosing and Culture.
# (§4) Logarithmic growth phase HL-60, human chronic myeloid leukemia cells (K562), human esophageal squamous cell carcinoma cells (KYSE510), human large cell lung cancer cells (H460) were inoculated into 96-well cell culture plates, 2×10^4 cells per well. Different concentrations of active compounds (dissolved in dimethyl sulfoxide (DMSO) stock solution) were added, so that the final concentration of DMSO was 0.2%, and the control group was DMSO. Each group was repeated three times.
# (§5) After culturing for 72 hours, 20 µL of thiazolyl blue (MTT) (5 mg/ml, ready for use, dissolved in 1×PBS for cell culture) was added to each well, and incubated at 37° C. for 3 hours.
# (§6) The 96-well cell culture plates were centrifuged at 1000 rpm for 10 minutes. The supernatant was discarded; 200 μL of DMSO was added to each well and the plate was shaken for 5 minutes.
# (§7) The absorbance of each well was detected at 570 nm wavelength with a microplate reader, and the IC50 of the compounds was calculated.
# [3] = system: human esophageal squamous cell carcinoma cells (KYSE510); assay: Anti-cancer activity test, MTT, KYSE510 cells; assay type: cell-based; settings: KYSE-510, culturing for 72 hours
# Method: as §1, §2, §3, §4, §5, §6, §7
# [4] = system: human chronic myeloid leukemia cells (K562); assay: Anti-cancer activity test, MTT, K562 cells; assay type: cell-based; settings: culturing for 72 hours
# Method: as §1, §2, §3, §4, §5, §6, §7
# [5] = system: human large cell lung cancer cells (H460); assay: Anti-cancer activity test, MTT, H460 cells; assay type: cell-based; settings: NCI-H460, culturing for 72 hours
# Method: as §1, §2, §3, §4, §5, §6, §7
# c-Myc370-412-biotin peptide, sequence (P01106 385-427): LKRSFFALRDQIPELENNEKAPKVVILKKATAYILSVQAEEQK
IC50 [2] [nM],SMILES,also measured
< 100,CC(C)C[C@H](NC(=O)[C@@H](NC(=O)OCC1c2ccccc2-c2ccccc21)[C@@H](C)OC(C)(C)C)B1O[C@@H]2C[C@@H]3C[C@@H](C3(C)C)[C@]2(C)O1 [Compound A2],Kd [1]: 100 to 500 nM
< 100,CC(C)C[C@H](NC(=O)[C@H](CCC(=O)OC(C)(C)C)NC(=O)OCC1c2ccccc2-c2ccccc21)B1O[C@@H]2C[C@@H]3C[C@@H](C3(C)C)[C@]2(C)O1 [Compound A7],Kd [1]: < 100 nM
< 100,CC(C)C[C@H](NC(=O)[C@H](CC(C)C)NC(=O)OCC1c2ccccc2-c2ccccc21)B1O[C@@H]2C[C@@H]3C[C@@H](C3(C)C)[C@]2(C)O1 [Compound A10],IC50 [3]: < 100 nM; IC50 [4]: < 100 nM; IC50 [5]: < 100 nM
< 100,CC(C)C[C@H](NC(=O)[C@H](CC(C)C)NC(=O)CC1c2ccccc2-c2ccccc21)B(O)O [Compound A67],IC50 [3]: < 100 nM; IC50 [4]: < 100 nM; IC50 [5]: < 100 nM
< 100,CC(C)C[C@H](NC(=O)[C@H](Cc1c[nH]c2ccccc12)NC(=O)c1nc2ccccc2s1)B(O)O [Compound A73],
< 100,COC(=O)C[C@H](NC(=O)CC1c2ccccc2-c2ccccc21)C(=O)N[C@@H](CC(C)C)B(O)O [Compound A80],
100 to 500,CC(C)C[C@H](NC(=O)[C@H](CC(N)=O)NC(=O)CC1c2ccccc2-c2ccccc21)B(O)O [Compound A81],
2000 to 10000,CC(C)C[C@H](NC(=O)OCC1c2ccccc2-c2ccccc21)C(=O)N1CCC[C@H]1B(O)O [Compound A82],
2000 to 10000,CC(C)C[C@H](NC(=O)[C@H](CC(C)C)N(C)C(=O)OCC1c2ccccc2-c2ccccc21)B(O)O [Compound A83],
< 100,CC(C)C[C@H](NC(=O)CNC(=O)OCC1c2ccccc2-c2ccccc21)B(O)O [Compound A84],
100 to 500,CC(C)C[C@H](NC(=O)[C@@H](C)NC(=O)OCC1c2ccccc2-c2ccccc21)B(O)O [Compound A85],
< 100,CC(C)C[C@H](NC(=O)[C@H](C)NC(=O)OCC1c2ccccc2-c2ccccc21)B(O)O [Compound A86],
100 to 500,CC(C)C[C@H](NC(=O)[C@H](CC(=O)NC(c1ccccc1)(c1ccccc1)c1ccccc1)NC(=O)OCC1c2ccccc2-c2ccccc21)B(O)O [Compound A89],
500 to 2000,CC(C)C[C@H](NC(=O)[C@H](CC(C)C)NC(=O)CN(c1ccccc1)c1ccccc1)B(O)O [Compound A93],

# Continued, molecule first:
SMILES,IC50 [2] [nM],also measured
CC(C)C[C@H](NC(=O)[C@H](CSC(c1ccccc1)(c1ccccc1)c1ccccc1)NC(=O)OCC1c2ccccc2-c2ccccc21)B1O[C@@H]2C[C@@H]3C[C@@H](C3(C)C)[C@]2(C)O1 [Compound A3],500 to 2000,Kd [1]: 100 to 500 nM
CC(C)C[C@H](NC(=O)[C@H](Cc1cn(C(c2ccccc2)(c2ccccc2)c2ccccc2)cn1)NC(=O)OCC1c2ccccc2-c2ccccc21)B1O[C@@H]2C[C@@H]3C[C@@H](C3(C)C)[C@]2(C)O1 [Compound A4],< 100,Kd [1]: < 100 nM
CC(C)C[C@H](NC(=O)[C@H](CCC(=O)NC(c1ccccc1)(c1ccccc1)c1ccccc1)NC(=O)OCC1c2ccccc2-c2ccccc21)B1O[C@@H]2C[C@@H]3C[C@@H](C3(C)C)[C@]2(C)O1 [Compound A6],< 100,Kd [1]: < 100 nM
CC(C)C[C@H](NC(=O)[C@H](Cc1c[nH]c2ccccc12)NC(=O)c1ccc2ncccc2c1)B(O)O [Compound A74],< 100,
CC(C)C[C@H](NC(=O)[C@H](Cc1c[nH]c2ccccc12)NC(=O)c1cnc2ccccc2c1)B(O)O [Compound A75],< 100,
CC(C)C[C@H](NC(=O)[C@H](Cc1c[nH]c2ccccc12)NC(=O)c1ccc2ccccc2c1)B(O)O [Compound A76],< 100,
CC(C)C[C@H](NC(=O)[C@H](Cc1c[nH]c2ccccc12)NC(=O)NC1CCCC1)B(O)O [Compound A77],< 100,
CC(C)C[C@H](NC(=O)[C@H](Cc1c[nH]c2ccccc12)NC(=O)OC1CCCC1)B(O)O [Compound A78],< 100,
CC(C)C[C@H](NC(=O)[C@H](Cc1c[nH]c2ccccc12)NCc1ccccc1)B(O)O [Compound A79],100 to 500,
COc1ccc2cc(C(=O)N[C@@H](Cc3c[nH]c4ccccc34)C(=O)N[C@@H](CC(C)C)B(O)O)ccc2c1 [Compound A87],< 100,
CC(C)C[C@H](NC(=O)[C@H](Cc1c[nH]c2ccccc12)NC(=O)c1ccc2cc(N)ccc2c1)B(O)O [Compound A88],< 100,
CC(C)C[C@H](NC(=O)[C@H](C)NC(=O)c1ccc2c(c1)C(=O)N(C1CCC(=O)NC1=O)C2=O)B(O)O (some centres unmarked) [Compound A90],2000 to 10000,
CC(C)C[C@H](NC(=O)[C@H](C)NC(=O)c1cccc2c1C(=O)N(C1CCC(=O)NC1=O)C2=O)B(O)O (some centres unmarked) [Compound A91],2000 to 10000,
CC(C)C[C@H](NC(=O)[C@H](CC(C)C)NC(=O)Cn1c2ccccc2c2ccncc21)B(O)O [Compound A92],100 to 500,
CC(C)C[C@H](NC(=O)[C@H](CC(C)C)NC(=O)Cn1c2ccccc2c2cccnc21)B(O)O [Compound A94],500 to 2000,
COc1ccc2c3ccccc3n(CC(=O)N[C@@H](CC(C)C)C(=O)N[C@@H](CC(C)C)B(O)O)c2c1 [Compound A95],500 to 2000,
CC(C)C[C@H](NC(=O)[C@H](CC(C)C)NC(=O)Cn1c2ccccc2c2cnccc21)B(O)O [Compound A96],100 to 500,
CC(C)C[C@H](NC(=O)[C@H](CC(C)C)NC(=O)Cn1c2ccc(Cl)cc2c2cc(Cl)ccc21)B(O)O [Compound A97],500 to 2000,
CC(C)C[C@H](NC(=O)[C@H](CC(C)C)NC(=O)Cn1c2ccccc2c2cc(F)ccc21)B(O)O [Compound A98],500 to 2000,
CC(C)C[C@H](NC(=O)[C@H](CC(C)C)NC(=O)Cn1c2ccccc2c2ccc(Cl)cc21)B(O)O [Compound A99],100 to 500,
CC(C)C[C@H](NC(=O)[C@H](CC(C)C)NC(=O)Cn1c2cc(Cl)ccc2c2ccc(Cl)cc21)B(O)O [Compound A100],500 to 2000,
CC(C)C[C@H](NC(=O)[C@H](CC(C)C)NC(=O)Cn1c2ccccc2c2ccc(C#N)cc21)B(O)O [Compound A101],100 to 500,
CC(C)C[C@H](NC(=O)[C@H](CC(C)C)NC(=O)Cn1c2ccccc2c2ccc(Br)cc21)B(O)O [Compound A102],100 to 500,
CC(C)C[C@H](NC(=O)[C@H](CC(C)C)NC(=O)Cn1c2ccccc2c2ccc(F)cc21)B(O)O [Compound A103],500 to 2000,
CC(C)C[C@H](NC(=O)[C@H](CC(C)C)NC(=O)Cn1c2ccccc2c2ncccc21)B(O)O [Compound A104],100 to 500,
CC(C)C[C@H](NC(=O)[C@H](CC(C)C)NC(=O)Cn1c2ccccc2c2ccc(OCc3ccccc3)cc21)B(O)O [Compound A105],100 to 500,
CC(C)C[C@H](NC(=O)[C@H](CC(C)C)NC(=O)Cn1c2ccccc2c2ccc(O)cc21)B(O)O [Compound A106],100 to 500,
CC(C)C[C@H](NC(=O)[C@H](CC(C)C)NC(=O)Cn1c2ncccc2c2cccnc21)B(O)O [Compound A107],500 to 2000,
